In PubChem BioAssay (NCI):
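Tested at 5 concentrations; 48 h exposure; 96-well plates; endpoints linearly interpolated, else capped at highest concentration. GI50 is the concentration that inhibits growth by half. TGI is the concentration that stops growth completely.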

Columns and labels:
Test in all cases: NCI-60 cell line screen, 48 h; in the data active = GI50 below about 0.43 µM; inactive = the rest
HCC-2998 colon = test system: HCC-2998 colon
DU-145 prostate = test system: DU-145 prostate
U251 CNS = test system: U251 CNS
TK-10 renal = test system: TK-10 renal
COLO 205 colon = test system: COLO 205 colon
UACC-257 melanoma = test system: UACC-257 melanoma
LOX IMVI melanoma = test system: LOX IMVI melanoma
HCT-15 colon = test system: HCT-15 colon
NCI-H460 lung = test system: NCI-H460 lung
OVCAR-4 ovarian = test system: OVCAR-4 ovarian
SF-295 CNS = test system: SF-295 CNS
UACC-62 melanoma = test system: UACC-62 melanoma
HL-60(TB) leukemia = test system: HL-60(TB) leukemia
PC-3 prostate = test system: PC-3 prostate
OVCAR-3 ovarian = test system: OVCAR-3 ovarian
HT29 colon = test system: HT29 colon
HOP-92 NSCLC = test system: HOP-92 NSCLC
M14 melanoma = test system: M14 melanoma
K-562 leukemia = test system: K-562 leukemia
SW-620 colon = test system: SW-620 colon
NCI-H23 lung = test system: NCI-H23 lung
SF-268 CNS = test system: SF-268 CNS
NCI-H226 lung = test system: NCI-H226 lung
MDA-MB-231 breast = test system: MDA-MB-231 breast
HCT-116 colon = test system: HCT-116 colon
SK-OV-3 ovarian = test system: SK-OV-3 ovarian
RXF 393 renal = test system: RXF 393 renal
IGROV1 ovarian = test system: IGROV1 ovarian
RPMI-8226 leukemia = test system: RPMI-8226 leukemia
SNB-75 CNS = test system: SNB-75 CNS
A498 renal = test system: A498 renal
HS 578T breast = test system: HS 578T breast
OVCAR-8 ovarian = test system: OVCAR-8 ovarian
NCI/ADR-RES ovarian = test system: NCI/ADR-RES ovarian
SK-MEL-28 melanoma = test system: SK-MEL-28 melanoma
EKVX NSCLC = test system: EKVX NSCLC
SK-MEL-5 melanoma = test system: SK-MEL-5 melanoma
SK-MEL-2 melanoma = test system: SK-MEL-2 melanoma
MALME-3M melanoma = test system: MALME-3M melanoma
ACHN renal = test system: ACHN renal
HOP-62 NSCLC = test system: HOP-62 NSCLC
T-47D breast = test system: T-47D breast
MOLT-4 leukemia = test system: MOLT-4 leukemia
A549 NSCLC = test system: A549 NSCLC
786-0 renal = test system: 786-0 renal
UO-31 renal = test system: UO-31 renal
BT-549 breast = test system: BT-549 breast
SNB-19 CNS = test system: SNB-19 CNS
SR leukemia = test system: SR leukemia
CCRF-CEM leukemia = test system: CCRF-CEM leukemia
OVCAR-5 ovarian = test system: OVCAR-5 ovarian
SF-539 CNS = test system: SF-539 CNS
KM12 colon = test system: KM12 colon
MCF7 breast = test system: MCF7 breast
SN12C renal = test system: SN12C renal
CAKI-1 renal = test system: CAKI-1 renal
NCI-H522 lung = test system: NCI-H522 lung

O=C(NCCCCNC(=O)OCc1ccc2c(Cl)cc(Cl)c(O)c2n1)OCc1ccc2c(Cl)cc(Cl)c(O)c2n1
3950 nM: TGI (SK-MEL-5 melanoma)
> 100000 nM: TGI (HCC-2998 colon) | TGI (DU-145 prostate) | TGI (U251 CNS) | TGI (TK-10 renal) | TGI (COLO 205 colon) | TGI (UACC-257 melanoma) | TGI (LOX IMVI melanoma) | TGI (HCT-15 colon) | TGI (NCI-H460 lung) | TGI (OVCAR-4 ovarian) | TGI (SF-295 CNS) | TGI (PC-3 prostate) | TGI (OVCAR-3 ovarian) | TGI (HT29 colon) | TGI (HOP-92 NSCLC) | TGI (M14 melanoma) | TGI (K-562 leukemia) | TGI (SW-620 colon) | TGI (NCI-H23 lung) | TGI (SF-268 CNS) | TGI (NCI-H226 lung) | TGI (MDA-MB-231 breast) | TGI (HCT-116 colon) | TGI (SK-OV-3 ovarian) | TGI (RXF 393 renal) | TGI (IGROV1 ovarian) | TGI (RPMI-8226 leukemia) | TGI (SNB-75 CNS) | TGI (HS 578T breast) | TGI (OVCAR-8 ovarian) | TGI (NCI/ADR-RES ovarian) | TGI (SK-MEL-28 melanoma) | TGI (EKVX NSCLC) | TGI (SK-MEL-2 melanoma) | TGI (MALME-3M melanoma) | TGI (ACHN renal) | TGI (HOP-62 NSCLC) | TGI (T-47D breast) | TGI (MOLT-4 leukemia) | TGI (A549 NSCLC) | TGI (786-0 renal) | TGI (UO-31 renal) | TGI (BT-549 breast) | TGI (SNB-19 CNS) | TGI (SR leukemia) | TGI (CCRF-CEM leukemia) | TGI (OVCAR-5 ovarian) | TGI (KM12 colon) | TGI (MCF7 breast) | TGI (SN12C renal) | TGI (CAKI-1 renal)
active: GI50 (HCT-116 colon) 359 nM | GI50 (RPMI-8226 leukemia) 336 nM | GI50 (A498 renal) 295 nM | GI50 (NCI/ADR-RES ovarian) 336 nM | GI50 (SR leukemia) 422 nM | GI50 (CCRF-CEM leukemia) 398 nM | GI50 (SF-539 CNS) 288 nM | GI50 (MCF7 breast) 406 nM
5230 nM: TGI (A498 renal)
2200 nM: TGI (HL-60(TB) leukemia)
inactive: GI50 (HCC-2998 colon) 3620 nM | GI50 (DU-145 prostate) 855 nM | GI50 (U251 CNS) 2840 nM | GI50 (TK-10 renal) 13800 nM | GI50 (COLO 205 colon) 24400 nM | GI50 (UACC-257 melanoma) 31400 nM | GI50 (LOX IMVI melanoma) 720 nM | GI50 (HCT-15 colon) 890 nM | GI50 (NCI-H460 lung) 521 nM | GI50 (OVCAR-4 ovarian) 4470 nM | GI50 (SF-295 CNS) 4170 nM | GI50 (UACC-62 melanoma) 2210 nM | GI50 (HL-60(TB) leukemia) 499 nM | GI50 (PC-3 prostate) 1640 nM | GI50 (OVCAR-3 ovarian) 442 nM | GI50 (HT29 colon) 43700 nM | GI50 (HOP-92 NSCLC) 3860 nM | GI50 (M14 melanoma) 502 nM | GI50 (K-562 leukemia) 586 nM | GI50 (SW-620 colon) 486 nM | GI50 (NCI-H23 lung) 1830 nM | GI50 (SF-268 CNS) 1250 nM | GI50 (NCI-H226 lung) 24300 nM | GI50 (MDA-MB-231 breast) 685 nM | GI50 (SK-OV-3 ovarian) 5120 nM | GI50 (RXF 393 renal) 3380 nM | GI50 (IGROV1 ovarian) 1220 nM | GI50 (SNB-75 CNS) 1230 nM | GI50 (HS 578T breast) 979 nM | GI50 (OVCAR-8 ovarian) 458 nM | GI50 (SK-MEL-28 melanoma) 809 nM | GI50 (EKVX NSCLC) 10600 nM | GI50 (SK-MEL-5 melanoma) 1200 nM | GI50 (SK-MEL-2 melanoma) 1940 nM | GI50 (MALME-3M melanoma) 2870 nM | GI50 (ACHN renal) 537 nM | GI50 (HOP-62 NSCLC) 2610 nM | GI50 (T-47D breast) 7610 nM | GI50 (MOLT-4 leukemia) 591 nM | GI50 (A549 NSCLC) 6330 nM | GI50 (786-0 renal) 4950 nM | GI50 (UO-31 renal) 1650 nM | GI50 (BT-549 breast) 2270 nM | GI50 (SNB-19 CNS) 4700 nM | GI50 (OVCAR-5 ovarian) 47100 nM | GI50 (KM12 colon) 543 nM | GI50 (SN12C renal) 762 nM | GI50 (CAKI-1 renal) 782 nM
86700 nM: TGI (UACC-62 melanoma)
1400 nM: TGI (SF-539 CNS)

COc1cc(-c2nc3ccccc3s2)ccc1OCCCCCOc1cc2c(cc1OC)C(=O)N1CCC[C@H]1C=N2
463 nM: TGI (SK-MEL-2 melanoma)
> 69800 nM: TGI (OVCAR-8 ovarian)
1970 nM: TGI (MDA-MB-231 breast)
1600 nM: TGI (KM12 colon)
950 nM: TGI (HOP-62 NSCLC)
300 nM: TGI (HCC-2998 colon)
398 nM: TGI (ACHN renal)
1140 nM: TGI (NCI-H522 lung)
528 nM: TGI (NCI-H226 lung)
365 nM: TGI (NCI-H23 lung)
424 nM: TGI (RPMI-8226 leukemia)
126 nM: TGI (BT-549 breast)
699 nM: TGI (HL-60(TB) leukemia)
4270 nM: TGI (HT29 colon)
2230 nM: TGI (K-562 leukemia)
160 nM: TGI (T-47D breast)
2060 nM: TGI (NCI-H460 lung)
7970 nM: TGI (LOX IMVI melanoma)
600 nM: TGI (HS 578T breast)
779 nM: TGI (SNB-75 CNS)
4760 nM: TGI (NCI/ADR-RES ovarian)
2270 nM: TGI (MOLT-4 leukemia)
2160 nM: TGI (CCRF-CEM leukemia)
701 nM: TGI (MCF7 breast)
358 nM: TGI (A498 renal)
6020 nM: TGI (HCT-15 colon)
3530 nM: TGI (SF-268 CNS)
265 nM: TGI (UACC-62 melanoma)
397 nM: TGI (HOP-92 NSCLC)
4610 nM: TGI (SNB-19 CNS)
135 nM: TGI (SK-MEL-5 melanoma)
257 nM: TGI (M14 melanoma)
1030 nM: TGI (SW-620 colon)
7140 nM: TGI (U251 CNS)
380 nM: TGI (786-0 renal)
7870 nM: TGI (OVCAR-5 ovarian)
10100 nM: TGI (HCT-116 colon)
active: GI50 (HCC-2998 colon) 125 nM | GI50 (DU-145 prostate) 104 nM | GI50 (U251 CNS) 63.2 nM | GI50 (TK-10 renal) 334 nM | GI50 (COLO 205 colon) 99.2 nM | GI50 (UACC-257 melanoma) 253 nM | GI50 (LOX IMVI melanoma) 129 nM | GI50 (HCT-15 colon) 284 nM | GI50 (NCI-H460 lung) 76.8 nM | GI50 (OVCAR-4 ovarian) 264 nM | GI50 (SF-295 CNS) 140 nM | GI50 (UACC-62 melanoma) 114 nM | GI50 (HL-60(TB) leukemia) 75.7 nM | GI50 (PC-3 prostate) 103 nM | GI50 (HT29 colon) 83.7 nM | GI50 (HOP-92 NSCLC) 100 nM | GI50 (M14 melanoma) 76.2 nM | GI50 (K-562 leukemia) 32.1 nM | GI50 (SW-620 colon) 91.2 nM | GI50 (NCI-H23 lung) 114 nM | GI50 (SF-268 CNS) 305 nM | GI50 (NCI-H226 lung) 212 nM | GI50 (MDA-MB-231 breast) 145 nM | GI50 (HCT-116 colon) 38.7 nM | GI50 (NCI-H522 lung) 97.4 nM | GI50 (SK-OV-3 ovarian) 177 nM | GI50 (IGROV1 ovarian) 244 nM | GI50 (RPMI-8226 leukemia) 97.2 nM | GI50 (SNB-75 CNS) 191 nM | GI50 (A498 renal) 199 nM | GI50 (HS 578T breast) 219 nM | GI50 (OVCAR-8 ovarian) 168 nM | GI50 (NCI/ADR-RES ovarian) 376 nM | GI50 (SK-MEL-28 melanoma) 255 nM | GI50 (EKVX NSCLC) 364 nM | GI50 (SK-MEL-5 melanoma) 59 nM | GI50 (SK-MEL-2 melanoma) 201 nM | GI50 (ACHN renal) 53.5 nM | GI50 (HOP-62 NSCLC) 85.1 nM | GI50 (T-47D breast) 40.7 nM | GI50 (MOLT-4 leukemia) 41.3 nM | GI50 (786-0 renal) 84.3 nM | GI50 (BT-549 breast) 45.7 nM | GI50 (SNB-19 CNS) 213 nM | GI50 (SR leukemia) < 13.2 nM | GI50 (CCRF-CEM leukemia) 27.5 nM | GI50 (OVCAR-5 ovarian) 154 nM | GI50 (SF-539 CNS) 86.4 nM | GI50 (KM12 colon) 206 nM | GI50 (MCF7 breast) 32.4 nM | GI50 (SN12C renal) 256 nM
14100 nM: TGI (TK-10 renal)
5310 nM: TGI (DU-145 prostate)
286 nM: TGI (SF-539 CNS)
> 63300 nM: TGI (SF-295 CNS)
953 nM: TGI (EKVX NSCLC)
1170 nM: TGI (UACC-257 melanoma)
674 nM: TGI (SK-OV-3 ovarian)
332 nM: TGI (COLO 205 colon)
665 nM: TGI (PC-3 prostate)
4540 nM: TGI (SN12C renal)
